Measured values as given in US8952054B2, “Small molecule inhibitors of MUC1 and methods of identifying the same” (Dana-Farber Cancer Institute, Inc., priority 2010, dated 2015).
Blank lines part the entries; values can stand above or below the molecule they belong to.

Legend:
MUC1-C = target: T1, MUC1-C (Homo sapiens, UniProt P15941); assay: Immunoblot of nuclear MUC1-C levels in MCF-7 cells (peptide); format: cell-based; parameters: Human ZR-75-1 and MCF-7 breast cancer cells overexpress endogenous MUC1; endogenous in cells; host or cells: ZR-75-1; MCF-7; settings: MCF-7, 5 μM peptide, 3 d
T1 sequence (P15941 1098-1255 limits assumed): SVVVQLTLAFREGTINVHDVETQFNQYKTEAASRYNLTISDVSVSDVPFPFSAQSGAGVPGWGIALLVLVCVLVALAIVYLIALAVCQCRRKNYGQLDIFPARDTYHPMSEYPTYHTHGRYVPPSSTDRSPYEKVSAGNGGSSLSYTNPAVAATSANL
Description: FIGS. 2A-C. MUC1/CQC peptide blocks nuclear localization of MUC1-C. (FIG. 2A) ZR-75-1 cells were incubated with 5 μM FITC-labeled MUC1/CQC peptide for the indicated times and then analyzed by flow cytometry. The mean fluorescence index (MFI) is included in each of the panels. (FIGS. 2B-C) ZR-75-1 (FIG. 2B) and MCF-7 (FIG. 2C) cells were incubated in the presence of 5 μM MUC1/CQC or MUC1/AQA peptide for 3 d. Whole cell lysates (WCL) (left panels) and nuclear lysates (right panels) were immunoblotted with the indicated antibodies.
Whole cell and nuclear lysates were prepared as described (Leng et al., 2007). Soluble proteins were subjected to immunoprecipitation with anti-Flag (Sigma, St. Louis, Mo.). Immunoprecipitates and soluble proteins were analyzed by immunoblotting with anti-His (Cell Signaling Technology, Danvers, Mass.), anti-GFP (Millipore, Danvers, Mass.), anti-Flag, anti-MUC1-C (Ab1; NeoMarkers, Fremont, Calif.), anti-lamin B (EMD, La Jolla, Calif.) or anti-β-actin (Sigma). Reactivity was detected with horseradish peroxidase-conjugated second antibodies and chemiluminescence.

MUC1-CD = target: T2, MUC1-CD (Homo sapiens, UniProt P15941); assay: Plate-based MUC1-CD dimerization inhibition assay (primary screening); format: biochemical
T2 construct: the 72 aa cytoplasmic domain (CD); His; made in house
T2 sequence (P15941 1184-1255 limits assumed): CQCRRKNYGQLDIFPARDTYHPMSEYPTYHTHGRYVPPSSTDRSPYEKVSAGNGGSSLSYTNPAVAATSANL
Description: FIG. 6—Schematic Illustration of Primary HTS Screening Assay for MUC1-CD Dimerization. MUC1-CD protein was coated on a 96 well plate and then incubated with Biotinylated MUC1-CD that binds to non-biotinylated MUC1-CD protein by dimer formation. Bound biotinylated MUC1-CD protein was detected by incubation with Streptavin-HRP+peroxidase substrate system.
FIGS. 11A-C—Identification of MUC1-CD dimerization inhibitors in a small molecule screen. (FIG. 11A) Schematic representation of the MUC1-C subunit with the 58 amino acid (aa) extracellular domain (ECD), the 28 aa transmembrane domain (TD) and the 72 aa cytoplasmic domain (CD; SEQ ID NO: 1). The sequence of MUC1-CD is included with highlighting of the CQC dimerization motif. (FIG. 11B) The assay for identification of MUC1-CD dimerization inhibitors is depicted with the following steps: (i) coating of MUC1-CD onto a microplate, (ii) adding soluble biotinylated MUC1-C and […] compound, and (iii) addition of streptavidin-HRP and then peroxide with conversion by HRP to a blue color. The signal is measured by EnVision and proportional to the amount of bound biotin-labeled MUC1-CD.
FIGS. 12A-D—Apigenin is an inhibitor of MUC1-CD dimerization in vitro and in cells. (FIG. 12A) Structures of apigenin and its analogue baicalein. Using the in vitro screening assay, dimerization of MUC1-CD was assessed in the presence of 100 μM apigenin or 100 μM baicalein each dissolved in 0.1% DMSO. The results (mean±SD of 3 determinations) are expressed as percentage of control dimerization in the presence of DMSO alone. (FIG. 12B) MUC1-CD dimerization was assessed in the presence of the indicated concentrations of apigenin in the in vitro screening assay. […] (FIG. 12C) Soluble MUC1-CD was incubated in the presence of 1% DMSO, 1 mM apigenin or 1 mM baicalein for 1 h at room temperature. Monomers and dimmers were assessed by electrophoresis in a non-reducing gel and immunoblotting with anti-MUC1-C. (FIG. 12D) 293 cells were transiently transfected to express an empty vector or GFP-MUC1-CD and Flag-MUC1-CD. At six hours after transfection, the cells were left untreated, and treated with 75 μM apigenin or baicalein for 3 days. Whole-cell lysates were precipitated with anti-Flag, and the precipitates were immunoblotted with the indicated antibodies.
Multi-well (96- or 384-well) plates are coated with non-biotinylated MUC1-CD, and biotinylated MUC1-CD is added to the plates to initiate MUC1-CD dimerization or oligomerization. A luminescent substrate for biotin binding is added to the plate, followed by washing. Resulting fluorescence is detected by luminescence detection at absorbance 405 nm. A complete schematic illustration of this assay is described in […]. Test compounds are added at multiple concentrations to the plates and, following incubation and washing, the plates are read for luminescent detection. The formation of MUC1-CD dimers is detected.
To develop a HTS assay for compounds that inhibit MUC1-CD dimerization, the inventors generated purified His-tagged MUC1-CD protein. They also generated a biotin-labeled His-tagged MUC1-CD protein using a standard biotinylation kit. Biotinylated and non-biotinylated proteins were purified through Nickel columns.
The inventors coated 96- or 384-well plates with non-biotinylated MUC1-CD protein and added biotinylated MUC1-CD protein to the plates to initiate MUC1-CD/MUC1-CD dimerization or oligomerization. They then added a substrate to the plate which will bind to the biotinylated protein (only at the dimer or oligomer state) and the resultant fluorescence was detected by luminescence detection at absorbance 405 nm. A complete schematic illustration of this assay is described in FIG. 6.
Individual compounds from the chemical libraries were then added at multiple concentrations (0.01 μM to 100 μM) to the plates and following incubation and washing, the plates were read by luminescence detection at […]. […]

[1] = 100 μM, compared to vehicle (DMSO)

nuclear MUC1-C levels (MUC1-C): down-regulation of nuclear MUC1-C levels
SMILES: CC[C@H](C)[C@H](NC(=O)[C@H](CC(=O)O)NC(=O)[C@H](CC(C)C)NC(=O)[C@H](CCC(N)=O)NC(=O)CNC(=O)[C@H](Cc1ccc(O)cc1)NC(=O)[C@H](CC(N)=O)NC(=O)[C@H](CCCCN)NC(=O)[C@H](CCCNC(=N)N)NC(=O)[C@H](CCCNC(=N)N)NC(=O)[C@H](CS)NC(=O)[C@H](CCC(N)=O)NC(=O)[C@H](CS)NC(=O)[C@@H](CCCNC(=N)N)NC(=O)[C@@H](CCCNC(=N)N)NC(=O)[C@@H](CCCNC(=N)N)NC(=O)[C@@H](CCCNC(=N)N)NC(=O)[C@@H](CCCNC(=N)N)NC(=O)[C@@H](CCCNC(=N)N)NC(=O)[C@@H](CCCNC(=N)N)NC(=O)[C@@H](CCCNC(=N)N)NC(=O)[C@H](N)CCCNC(=N)N)C(=O)N[C@@H](Cc1ccccc1)C(=O)N1CCC[C@H]1C(=O)O [MUC1/CQC]

inhibition at 100 µM (MUC1-CD; [1]): ~80% | initial library screen result (MUC1-CD; library of Table 1): MUC1 dimerization inhibitory compounds | IC50 (MUC1-CD; range of concentrations, read-out: 50% inhibition (IC50) of MUC1-CD dimerization): 76 µM
SMILES: O=c1cc(-c2ccc(O)cc2)oc2cc(O)cc(O)c12 [Apigenin, 4′,5,7-trihydroxyflavone]

inhibition of MUC1-CD dimerization (MUC1-CD; [1]): little if any effect
SMILES: O=c1cc(-c2ccccc2)oc2cc(O)c(O)c(O)c12 [Baicalein, 5,6,7-trihydroxyflavone, reference compound]
